How the values were obtained:
[1] = MRT (0 to t) in mouse at 10 mg/kg, po; format: ADME, organism-based; conditions: in vivo
[2] = Cytotoxicity against human FHC cells assessed as cell viability at 8 ug/ml; format: toxicity, cell-based; conditions: at 8 µg/mL, read-out: Activity
[3] = AUC (0 to infinity) in mouse at 10 mg/kg, iv; format: ADME, organism-based; conditions: in vivo
[4] = AUMC (0 to infinity) in mouse at 10 mg/kg, iv; format: ADME, organism-based; conditions: in vivo
[5] = AUMC (0 to t) in mouse at 10 mg/kg, iv; format: ADME, organism-based; conditions: in vivo
Staphylococcus aureus [6] = assay: Antibacterial activity against Staphylococcus aureus assessed growth inhibition by micro broth dilution method; format: functional
[7] = MRT (0 to t) in mouse at 10 mg/kg, iv; format: ADME, organism-based; conditions: in vivo
Staphylococcus aureus [8] = assay: Antibacterial activity against methicillin-resistant Staphylococcus aureus assessed growth inhibition by micro broth dilution method; format: functional
[9] = Cmax in mouse at 10 mg/kg, po; format: ADME, organism-based; conditions: in vivo
[10] = Half life in mouse at 10 mg/kg, iv; format: ADME, organism-based; conditions: in vivo
[11] = Clearance in mouse at 10 mg/kg, po; format: ADME, organism-based; conditions: in vivo
[12] = Clearance in mouse at 10 mg/kg, iv; format: ADME, organism-based; conditions: in vivo
Pseudomonas aeruginosa [13] = assay: Antibacterial activity against Pseudomonas aeruginosa ATCC 27853 assessed growth inhibition by micro broth dilution method; format: functional
[14] = AUMC (0 to t) in mouse at 10 mg/kg, po; format: ADME, organism-based; conditions: in vivo
[15] = AUC (0 to t) in mouse at 10 mg/kg, po; format: ADME, organism-based; conditions: in vivo
[16] = Volume of distribution at steady state in mouse at 10 mg/kg, iv; format: ADME, organism-based; conditions: in vivo
Klebsiella pneumoniae [17] = assay: In vivo anti-infective effect against Klebsiella pneumonia p1-6305014 infected in mouse model assessed as reduction bacterial growth at 15 mg/kg; format: functional
Enterococcus faecalis = assay: Antibacterial activity against Enterococcus faecalis assessed growth inhibition by micro broth dilution method; format: functional
Escherichia coli [18] = assay: Antibacterial activity against Escherichia coli ATCC 25922 assessed growth inhibition by micro broth dilution method; format: functional
Staphylococcus aureus [19] = assay: Anti-biofilm activity against Staphylococcus aureus ATCC 29213 assessed as relative biofilm clearance rate at 8 times of MIC by crystal violet staining based assay; format: functional
Staphylococcus aureus [20] = assay: Antibacterial activity against Staphylococcus aureus ATCC 25923 assessed growth inhibition by micro broth dilution method; format: functional
Staphylococcus aureus [21] = assay: Antibacterial activity against Staphylococcus aureus ATCC 29213 assessed growth inhibition by micro broth dilution method; format: functional
Acinetobacter baumannii = assay: Antibacterial activity against Acinetobacter baumannii assessed growth inhibition by micro broth dilution method; format: functional
Pseudomonas aeruginosa [22] = assay: Antibacterial activity against Pseudomonas aeruginosa assessed growth inhibition by micro broth dilution method; format: functional
[23] = MRT (0 to infinity) in mouse at 10 mg/kg, po; format: ADME, organism-based; conditions: in vivo
[24] = Initial plasma concentration in mouse at 10 mg/kg, iv; format: ADME, organism-based; conditions: in vivo
[25] = Tmax in mouse at 10 mg/kg, po; format: ADME, organism-based; conditions: in vivo
[26] = Apparent volume of distribution in mouse at 10 mg/kg, po; format: ADME, organism-based; conditions: in vivo
[27] = AUC (0 to infinity) in mouse at 10 mg/kg, po; format: ADME, organism-based; conditions: in vivo
[28] = Tmax in mouse at 10 mg/kg, iv; format: ADME, organism-based; conditions: in vivo
[29] = MRT (0 to infinity) in mouse at 10 mg/kg, iv; format: ADME, organism-based; conditions: in vivo
[30] = Half life in mouse at 10 mg/kg, po; format: ADME, organism-based; conditions: in vivo
[31] = AUC (0 to t) in mouse at 10 mg/kg, iv; format: ADME, organism-based; conditions: in vivo
Erythrocyte = assay: Hemolytic activity in human RBC incubated measured upto 128 ug/ml; format: toxicity, cell-based; conditions: dose < 128 µg/ml
[32] = Oral bioavailability in mouse at 10 mg/kg; format: ADME, organism-based; conditions: in vivo
Klebsiella pneumoniae [33] = assay: Antibacterial activity against Klebsiella pneumonia assessed growth inhibition by micro broth dilution method; format: functional
Klebsiella pneumoniae [34] = assay: Anti-biofilm activity against Klebsiella pneumonia assessed as relative biofilm clearance rate at 8 times of MIC by crystal violet staining based assay; format: functional
[35] = AUMC (0 to infinity) in mouse at 10 mg/kg, po; format: ADME, organism-based; conditions: in vivo
[36] = Cytotoxicity against human NOK cells assessed as cell viability at 8 ug/ml; format: toxicity, cell-based; conditions: nok-si, dose 8 µg/ml
Escherichia coli [37] = assay: Antibacterial activity against Escherichia coli assessed growth inhibition by micro broth dilution method; format: functional
[38] = Cmax in mouse at 10 mg/kg, iv; format: ADME, organism-based; conditions: in vivo
Klebsiella pneumoniae [39] = assay: In vivo anti-infective effect against Klebsiella pneumonia p1-6305014 infected in mouse model assessed as reduction bacterial growth at 5 mg/kg; format: functional
[40] = Thermodynamic solubility of the compound in water; format: physicochemical; conditions: read-out: Therm_solubility

SMILES: CCCCCCCCn1cc(C(=O)OCC)c(=O)c2cc(F)c([C-](C#N)C(=O)OCC)cc21.[Na+] (stereo not drawn)
- MRT last [1]: 161 min
- viability at 8 ug/ml [2]: 70%
- AUC [3]: 90.6 ng·h/mL
- AUMC [4]: 15 hr.hr.ng/ml
- AUMCt [5]: 13.3 hr.hr.ng/ml
- MIC (Staphylococcus aureus [6]): 16 µg/mL
- MRT last [7]: 9 min
- MIC (Staphylococcus aureus [8]): 8 µg/mL
- Cmax [9]: 89 ng/mL
- half-life [10]: 12 min
- CL/F [11]: 698 mL/min/kg
- CL [12]: 191.07 mL/min/kg
- MIC (Pseudomonas aeruginosa [13]): 0.5 µg/mL
- AUMCt [14]: 523 hr.hr.ng/ml
- AUC(0-t) [15]: 196 ng·h/mL
- Vdss [16]: 1.976 L/kg
- Activity (Klebsiella pneumoniae [17]): 4 log10CFU
- MIC (Enterococcus faecalis): 4 µg/mL
- MIC (Escherichia coli [18]): 0.25 µg/mL
- Activity (Staphylococcus aureus [19]): 70%
- MIC (Staphylococcus aureus [20]): 0.25 µg/mL
- MIC (Staphylococcus aureus [21]): 0.25 µg/mL
- MIC (Acinetobacter baumannii): 0.25 µg/mL
- MIC (Pseudomonas aeruginosa [22]): 0.5 µg/mL
- MRT [23]: 250 min
- C0 [24]: 1046 ng/mL
- Tmax [25]: 30 min
- Vz [26]: 133.561 L/kg
- AUC [27]: 241 ng·h/mL
- Tmax [28]: 1.98 min
- MRT inf [29]: 10.2 min
- half-life [30]: 133 min
- AUC(0-t) [31]: 89.3 ng·h/mL
- Activity (Erythrocyte): Non-Toxic
- F [32]: 26.6%
- MIC (Klebsiella pneumoniae [33]): 0.25 µg/mL
- Activity (Klebsiella pneumoniae [34]): 70%
- AUMC [35]: 1035 hr.hr.ng/ml
- Activity [36]: Non-Toxic
- MIC (Escherichia coli [37]): 0.25 µg/mL
- Cmax [38]: 549 ng/mL
- Activity (Klebsiella pneumoniae [39]): 1.5 log10CFU
- solubility thermodynamic [40]: 27.5 µg/mL
